Measurements: patent US20180271863A1, “TARGETING P2 PURINERGIC RECEPTORS TO TREAT HEPATOCELLULAR CARCINOMA (HCC)” (Baylor College of Medicine, priority 2015, published 2018)

Columns and labels:
Format in all cases: cell-based, human
SNU-387 cells = experiment: Western blotting of cyclin D3 in SNU-387 cells; conditions: ATP 24 hours, serum-free
Method: HCC cells (Huh7, Hep3B, SNU-387, and PLC/PRF/5) maintained in serum-free conditions were treated with ATP for 24 hours and total protein extracts were analyzed by Western blotting for cyclin D3 expression. The α-tubulin was utilized as the protein loading control. Data represents mean±SD, n=3-6, *p<0.05 vs untreated (un).
Normal human primary hepatocytes isolated from healthy adults (no known history of HCC) in suspension or freshly-frozen prior to shipment (Cryoport Systems, CA) were purchased from Triangle Research Labs, NC. […]
Total protein extracts were obtained by homogenizing cells in total lysis buffer (50 mM Tris-HCl, pH 7.5, 0.5 M NaCl, 2 mM EGTA, 2 mM EDTA, 1.0% Triton X-100, 0.25% Deoxycholate, 1 m/ml pepstatin, 1.0 m/ml leupeptin, 1.0 m/ml aprotinin, 1.0 mM phenylmethylsulfonyl fluoride, 1.0 mM Dithiothreitol, 2.0 mM activated Na3VO4, and 2.0 mM NaF) and centrifuging at 14,000 rpm for 10 min (4° C.). Equal amounts of total proteins as determined by BCA protein Assay (Pierce, Rockford, Ill.) were analyzed by Western blotting. […]

Hep3B cells = experiment: MTT assay of cell proliferation and viability, Hep3B; conditions: ATP 100 μM, 18 h
Method: Normal human primary hepatocytes isolated from healthy adults (no known history of HCC) in suspension or freshly-frozen prior to shipment (Cryoport Systems, CA) were purchased from Triangle Research Labs, NC. Fresh hepatocytes were plated on collagen-coated tissue culture plates or glass coverslips in Williams E complete media with additives (10% fetal bovine serum, 2 mM glutamine, […] insulin, 4 ng/ml glucagon, […] transferrin, 2.5 ng/ml sodium selenite, 10,000 U/ml penicillin, […] streptomycin, 50 g/ml gentamycin) for 3 h to ensure hepatocyte adherence to plates. Subsequently, hepatocytes were maintained in Williams E minimal media free from serum and growth factors for 24 h prior to treatment. Human hepatocellular carcinoma derived Huh7, and Hep3B, were cultured in Minimum Essential Medium Eagle (MEM); SNU-387 was cultured in Roswell Park Memorial Institute (RPMI) medium and PLC/PRF/5 cultured in Dulbecco's Modified Eagle's medium (DMEM). All maintenance culture media were supplemented with 10% fetal bovine serum (FBS), L-Glutamine (2 mM), penicillin (100 units/ml) and streptomycin ([…]) at 37° C. and 5% CO2. […]
Cell viability was determined using the 3-(4, 5-dimethylthiazol-2-yl)-2,5-diphenyltetrazolium (MTT, Sigma) assays. […] After shaking the plates for 30 min, the absorbance at 570 nm was measured (background subtraction at […]).

Huh7 cells = experiment: qRT-PCR of cyclin mRNA in Huh7 cells; conditions: 6 h treatment
Method: Normal human primary hepatocytes isolated from healthy adults (no known history of HCC) in suspension or freshly-frozen prior to shipment (Cryoport Systems, CA) were purchased from Triangle Research Labs, NC. Fresh hepatocytes were plated on collagen-coated tissue culture plates or glass coverslips in Williams E complete media with additives (10% fetal bovine serum, 2 mM glutamine, […] insulin, 4 ng/ml glucagon, […] transferrin, 2.5 ng/ml sodium selenite, 10,000 U/ml penicillin, […] streptomycin, 50 g/ml gentamycin) for 3 h to ensure hepatocyte adherence to plates. Subsequently, hepatocytes were maintained in Williams E minimal media free from serum and growth factors for 24 h prior to treatment. Human hepatocellular carcinoma derived Huh7, and Hep3B, were cultured in Minimum Essential Medium Eagle (MEM); SNU-387 was cultured in Roswell Park Memorial Institute (RPMI) medium and PLC/PRF/5 cultured in Dulbecco's Modified Eagle's medium (DMEM). All maintenance culture media were supplemented with 10% fetal bovine serum (FBS), L-Glutamine (2 mM), penicillin (100 units/ml) and streptomycin ([…]) at 37° C. and 5% CO2. Cells were maintained in serum free media (containing 2 mM L-Glutamine, 100 units/ml penicillin and ([…])) streptomycin for 24 h prior to treatment. Total RNA was isolated from human livers or cells using Trizol Reagent according to manufacturer's instructions (Invitrogen, NY). Complementary DNA (cDNA) synthesis was performed by reverse transcription of total RNA (2 μg) with high capacity cDNA reverse transcription kit (Applied Biosystems, Foster city, CA). The cDNA product was amplified by qRT-PCR in Step One Plus Real-Time PCR system using SYBR Green PCR Master Mix (Applied Biosystems, Grand Island, N.Y.). Quantitative expression values were determined using the […] as specified by manufacturers using GAPDH as a control.

SMILES | cyclin D3 protein expression (SNU-387 cells) [fold] | increase in cell proliferation and viability (MTT) (Hep3B cells) [%] | Cyclin D3 mRNA expression vs untreated cells (Huh7 cells) [fold]
Nc1ncnc2c1ncn2[C@@H]1O[C@H](COP(=O)(O)OP(=O)(O)OP(=O)(O)O)[C@@H](O)[C@H]1O [ATP] | 1.6 | 81 | 
Nc1ncnc2c1ncn2[C@@H]1O[C@H](COP(=O)(O)OP(=O)(O)OP(O)(O)=S)[C@@H](O)[C@H]1O [ATPγS] |  |  | 2.1
